# Read-outs that look alike come from different tables or passages of the source.
# What was measured:
# Assay in all cases: biochemical
# Design in all cases: Eurofins KinaseProfiler full panel at Km ATP, residual kinase activity (%) relative to DMSO
# CDK2/cyclinA(h) = CDK2/cyclinA(h) (Homo sapiens, UniProt P24941)
# Summary of the method: (§1)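 Compounds screened at 10 µM in radiometric kinase activity assays at Km ATP, reported as remaining kinase activity (%). A KINOMEscan competition-binding screen at 10 µM measured DNA-tagged kinase retained on immobilized active-site ligand by qPCR.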
# FGFR2(N549H)(h) = FGFR2(N549H)(h) (Homo sapiens, UniProt P21802, N549H)
# Summary of the method: as §1
# Axl(h) = biological target: T1, Axl(h) (Homo sapiens, UniProt P30530)
# T1 sequence (P30530 1-894): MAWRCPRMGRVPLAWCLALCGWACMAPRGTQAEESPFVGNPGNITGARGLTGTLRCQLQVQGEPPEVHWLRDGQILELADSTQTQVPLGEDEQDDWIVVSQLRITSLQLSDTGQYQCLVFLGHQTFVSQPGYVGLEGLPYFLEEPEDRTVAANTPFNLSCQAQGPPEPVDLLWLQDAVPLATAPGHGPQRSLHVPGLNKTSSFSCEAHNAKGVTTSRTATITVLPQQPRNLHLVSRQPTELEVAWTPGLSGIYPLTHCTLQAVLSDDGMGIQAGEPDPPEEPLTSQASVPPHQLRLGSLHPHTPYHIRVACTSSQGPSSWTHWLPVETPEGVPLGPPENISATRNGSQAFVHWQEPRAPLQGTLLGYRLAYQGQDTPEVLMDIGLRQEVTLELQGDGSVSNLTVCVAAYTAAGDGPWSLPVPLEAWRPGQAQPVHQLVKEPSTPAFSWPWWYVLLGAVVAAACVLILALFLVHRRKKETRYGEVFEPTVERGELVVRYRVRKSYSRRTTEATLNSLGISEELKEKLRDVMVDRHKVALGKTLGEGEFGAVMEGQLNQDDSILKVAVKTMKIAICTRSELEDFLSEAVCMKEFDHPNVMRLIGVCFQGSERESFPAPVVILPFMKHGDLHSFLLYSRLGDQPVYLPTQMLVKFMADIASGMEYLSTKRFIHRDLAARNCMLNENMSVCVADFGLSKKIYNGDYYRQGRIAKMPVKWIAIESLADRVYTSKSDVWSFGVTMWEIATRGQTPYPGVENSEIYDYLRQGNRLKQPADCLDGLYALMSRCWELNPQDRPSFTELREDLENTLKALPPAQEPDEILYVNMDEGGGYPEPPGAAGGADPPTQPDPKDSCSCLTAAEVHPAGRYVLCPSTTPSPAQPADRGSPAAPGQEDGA
# Summary of the method: as §1
# CDK7/cyclinH/MAT1(h) = CDK7/cyclinH/MAT1(h) (Homo sapiens, UniProt P50613)
# Summary of the method: as §1
# PAR-1Bα(h) = biological target: T2, PAR-1Bα(h) (Homo sapiens, UniProt Q7KZI7)
# T2 construct: gene MARK2
# Summary of the method: as §1
# GRK1(h) = biological target: T3, GRK1(h) (Homo sapiens, UniProt Q15835)
# T3 sequence (Q15835 1-563): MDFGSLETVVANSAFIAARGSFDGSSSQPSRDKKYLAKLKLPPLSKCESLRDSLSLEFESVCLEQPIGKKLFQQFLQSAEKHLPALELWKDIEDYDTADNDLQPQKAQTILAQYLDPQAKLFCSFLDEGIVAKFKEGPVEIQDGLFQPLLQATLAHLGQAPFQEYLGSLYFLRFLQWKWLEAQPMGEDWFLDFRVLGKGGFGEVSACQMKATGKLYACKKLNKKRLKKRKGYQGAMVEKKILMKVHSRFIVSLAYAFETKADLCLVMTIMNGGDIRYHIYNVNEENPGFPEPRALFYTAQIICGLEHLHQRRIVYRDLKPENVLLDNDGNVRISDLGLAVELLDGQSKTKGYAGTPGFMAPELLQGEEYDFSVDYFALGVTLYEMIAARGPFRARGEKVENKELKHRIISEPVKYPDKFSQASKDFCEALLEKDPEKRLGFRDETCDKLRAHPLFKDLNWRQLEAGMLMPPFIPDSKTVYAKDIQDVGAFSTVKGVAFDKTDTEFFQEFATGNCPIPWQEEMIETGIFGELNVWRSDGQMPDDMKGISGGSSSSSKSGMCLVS
# Summary of the method: as §1
# MKK3(h) = biological target: T4, MKK3(h) (Homo sapiens, UniProt P46734)
# T4 construct: gene MAP2K3
# T4 sequence (P46734 1-347): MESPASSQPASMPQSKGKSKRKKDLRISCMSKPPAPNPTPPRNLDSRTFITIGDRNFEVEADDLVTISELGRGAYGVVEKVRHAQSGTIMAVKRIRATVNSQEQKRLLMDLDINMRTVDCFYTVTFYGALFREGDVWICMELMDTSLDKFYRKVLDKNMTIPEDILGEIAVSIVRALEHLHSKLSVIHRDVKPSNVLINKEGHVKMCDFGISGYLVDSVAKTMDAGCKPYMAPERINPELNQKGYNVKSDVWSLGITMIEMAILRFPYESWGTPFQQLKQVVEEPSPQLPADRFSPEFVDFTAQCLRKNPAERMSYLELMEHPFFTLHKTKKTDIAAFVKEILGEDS
# Summary of the method: as §1
# [1] = read-out: Residual activity (%) Spautin-1 5aa
# [2] = read-out: Residual activity (%) 5as
# [3] = read-out: Residual activity (%) 5at
# [4] = read-out: Residual activity (%) 5ay
# Chain of FGFR2(N549H)(h) (P21802 whole entry N549H): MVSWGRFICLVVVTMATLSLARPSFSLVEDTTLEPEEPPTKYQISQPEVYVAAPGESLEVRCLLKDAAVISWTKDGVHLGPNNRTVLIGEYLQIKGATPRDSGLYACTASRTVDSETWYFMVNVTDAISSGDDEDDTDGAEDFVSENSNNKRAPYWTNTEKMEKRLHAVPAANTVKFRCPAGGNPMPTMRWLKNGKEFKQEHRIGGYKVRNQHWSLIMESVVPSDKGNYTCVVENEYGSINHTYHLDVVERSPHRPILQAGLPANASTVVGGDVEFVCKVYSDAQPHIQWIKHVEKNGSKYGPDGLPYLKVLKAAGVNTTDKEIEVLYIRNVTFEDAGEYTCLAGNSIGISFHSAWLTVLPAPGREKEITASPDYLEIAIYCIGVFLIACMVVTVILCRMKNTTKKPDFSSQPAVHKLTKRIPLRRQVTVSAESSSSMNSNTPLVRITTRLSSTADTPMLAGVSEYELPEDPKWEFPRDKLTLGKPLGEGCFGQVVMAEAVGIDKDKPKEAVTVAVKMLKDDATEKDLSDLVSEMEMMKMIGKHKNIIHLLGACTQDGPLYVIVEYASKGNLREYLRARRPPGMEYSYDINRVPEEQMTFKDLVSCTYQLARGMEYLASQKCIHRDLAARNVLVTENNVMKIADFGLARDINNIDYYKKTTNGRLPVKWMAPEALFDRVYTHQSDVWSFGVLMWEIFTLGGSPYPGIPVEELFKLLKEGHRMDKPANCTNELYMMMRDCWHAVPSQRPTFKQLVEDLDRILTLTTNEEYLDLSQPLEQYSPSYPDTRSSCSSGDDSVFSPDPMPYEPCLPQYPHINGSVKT
# T2 sequence (Q7KZI7 whole entry): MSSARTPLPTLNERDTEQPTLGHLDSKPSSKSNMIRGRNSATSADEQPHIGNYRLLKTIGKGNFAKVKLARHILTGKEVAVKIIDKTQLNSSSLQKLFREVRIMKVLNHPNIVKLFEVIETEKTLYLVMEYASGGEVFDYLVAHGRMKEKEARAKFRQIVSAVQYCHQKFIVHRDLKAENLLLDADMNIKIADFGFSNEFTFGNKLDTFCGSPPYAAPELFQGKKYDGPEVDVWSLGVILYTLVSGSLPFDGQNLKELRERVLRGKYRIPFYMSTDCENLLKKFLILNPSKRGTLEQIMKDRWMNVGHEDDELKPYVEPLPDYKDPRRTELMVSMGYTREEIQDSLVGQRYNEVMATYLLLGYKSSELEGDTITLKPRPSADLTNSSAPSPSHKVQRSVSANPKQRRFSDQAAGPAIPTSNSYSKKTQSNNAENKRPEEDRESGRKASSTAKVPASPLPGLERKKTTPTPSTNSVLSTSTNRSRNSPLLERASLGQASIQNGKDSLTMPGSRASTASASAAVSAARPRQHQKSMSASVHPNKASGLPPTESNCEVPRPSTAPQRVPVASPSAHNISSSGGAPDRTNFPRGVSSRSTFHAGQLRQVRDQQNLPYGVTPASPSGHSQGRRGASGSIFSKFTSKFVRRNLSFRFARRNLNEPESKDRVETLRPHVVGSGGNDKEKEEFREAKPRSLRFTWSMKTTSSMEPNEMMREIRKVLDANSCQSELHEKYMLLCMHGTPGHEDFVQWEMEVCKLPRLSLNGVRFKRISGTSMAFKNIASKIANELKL
# Chain of CDK7/cyclinH/MAT1(h) (P50613 whole entry): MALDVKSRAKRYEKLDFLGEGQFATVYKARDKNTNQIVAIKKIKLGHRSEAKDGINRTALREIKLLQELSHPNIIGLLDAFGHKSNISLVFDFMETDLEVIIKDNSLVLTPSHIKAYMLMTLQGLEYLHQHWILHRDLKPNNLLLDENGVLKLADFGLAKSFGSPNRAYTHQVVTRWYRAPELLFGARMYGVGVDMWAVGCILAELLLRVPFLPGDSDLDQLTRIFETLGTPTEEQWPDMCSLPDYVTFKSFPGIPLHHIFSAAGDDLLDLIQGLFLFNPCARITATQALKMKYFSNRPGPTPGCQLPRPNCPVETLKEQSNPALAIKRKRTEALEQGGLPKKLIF
# Chain of CDK7/cyclinH/MAT1(h) (P51946 whole entry partner): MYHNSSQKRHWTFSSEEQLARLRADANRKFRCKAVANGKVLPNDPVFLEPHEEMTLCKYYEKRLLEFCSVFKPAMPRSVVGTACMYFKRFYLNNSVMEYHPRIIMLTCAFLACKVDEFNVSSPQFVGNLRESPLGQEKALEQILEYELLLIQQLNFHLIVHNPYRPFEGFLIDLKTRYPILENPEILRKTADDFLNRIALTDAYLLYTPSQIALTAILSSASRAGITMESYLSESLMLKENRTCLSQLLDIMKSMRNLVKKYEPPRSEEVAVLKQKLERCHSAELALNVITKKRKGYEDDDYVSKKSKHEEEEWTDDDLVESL
# Chain of CDK7/cyclinH/MAT1(h) (P51948 whole entry partner): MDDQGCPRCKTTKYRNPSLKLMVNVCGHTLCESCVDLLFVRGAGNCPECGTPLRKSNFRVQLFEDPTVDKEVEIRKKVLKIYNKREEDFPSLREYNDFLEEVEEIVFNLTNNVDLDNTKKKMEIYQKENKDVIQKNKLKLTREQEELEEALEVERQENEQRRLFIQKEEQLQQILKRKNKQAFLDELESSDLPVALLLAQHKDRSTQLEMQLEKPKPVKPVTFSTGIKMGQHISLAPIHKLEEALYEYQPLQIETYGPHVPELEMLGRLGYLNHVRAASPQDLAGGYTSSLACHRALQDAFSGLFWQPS
structure (smiles),measurement,setting,value
"Fc1ccc(CNc2ncnc3ccc(F)cc23)cc1 [5aa, 6-Fluoro-N-(4-fluorobenzyl)-4-Quinazolinamine]",remaining activity at 10 µM,CDK2/cyclinA(h); [1],95%
same,remaining activity at 10 µM,FGFR2(N549H)(h); [1],72%
same,remaining activity at 10 µM,Axl(h); [1],62%
same,remaining activity at 10 µM,CDK7/cyclinH/MAT1(h); [1],62%
same,remaining activity at 10 µM,PAR-1Bα(h); [1],84%
same,remaining activity at 10 µM,GRK1(h); [1],101%
same,remaining activity at 10 µM,MKK3(h); [1],101%
"Fc1ccc(CCNc2ncnc3ccc(F)cc23)cc1 [5as, 6-Fluoro-N-[2-(4-Fluorophenyl)Ethyl]-4-Quinazolinamine]",remaining activity at 10 µM,CDK2/cyclinA(h); [2],82%
same,remaining activity at 10 µM,FGFR2(N549H)(h); [2],80%
same,remaining activity at 10 µM,Axl(h); [2],90%
same,remaining activity at 10 µM,CDK7/cyclinH/MAT1(h); [2],49%
same,remaining activity at 10 µM,PAR-1Bα(h); [2],86%
same,remaining activity at 10 µM,GRK1(h); [2],79%
same,remaining activity at 10 µM,MKK3(h); [2],82%
"Fc1ccc2ncnc(NCCc3ccc(Cl)cc3)c2c1 [5at, N-[2-(4-Chlorophenyl)Ethyl]-6-Fluoro-4-Quinazolinamine]",remaining activity at 10 µM,CDK2/cyclinA(h); [3],86%
same,remaining activity at 10 µM,FGFR2(N549H)(h); [3],68%
same,remaining activity at 10 µM,Axl(h); [3],75%
same,remaining activity at 10 µM,CDK7/cyclinH/MAT1(h); [3],59%
same,remaining activity at 10 µM,PAR-1Bα(h); [3],101%
same,remaining activity at 10 µM,GRK1(h); [3],81%
same,remaining activity at 10 µM,MKK3(h); [3],86%
"COc1ccc2ncnc(Nc3cccc(F)c3)c2c1 [5ay, N-(3-Fluorophenyl)-6-Methoxy-4-Quinazolinamine]",remaining activity at 10 µM,CDK2/cyclinA(h); [4],83%
same,remaining activity at 10 µM,FGFR2(N549H)(h); [4],66%
same,remaining activity at 10 µM,Axl(h); [4],64%
same,remaining activity at 10 µM,CDK7/cyclinH/MAT1(h); [4],58%
same,remaining activity at 10 µM,PAR-1Bα(h); [4],83%
same,remaining activity at 10 µM,GRK1(h); [4],88%
same,remaining activity at 10 µM,MKK3(h); [4],105%

# Reference: PMC7827406, “Structure–Activity Relationship (SAR) Study of Spautin-1 to Entail the Discovery of Novel NEK4 Inhibitors” (International Journal of Molecular Sciences, 2021)
